Test results reported in patent US20190282566A1, “USE OF FLIBANSERIN IN THE TREATMENT OF OBESITY” (Sprout Pharmaceuticals, Inc., priority 2005, published 2019).

Legend:
[1] = 13-week dietary admixture study in rats, body weight; assay type: in vivo
Procedure: To test the efficacy of Flibanserin in the treatment of obesity groups of the rats per sex per group (gang-housed) received Flibnanserin at dosages of 0 (control), 100, 200, and 600 mg/kg/day via dietary admixture. The test compound was mixed with the food to obtain a 3% premix. This premix was prepared in week −1 and drug week 7 and was used to prepare the substance/food mixtures for all individual groups. The substance/food concentration was calculated using the mean daily food intake from the study week before. The substance/food mixture was made weekly for every dose group and stored under darkness in the animal room. The concentration, homogeneity and stability of the test substance in the food was checked during study week 2 with reanalysis one and four weeks later. One further check of concentration and homogeneity was performed in week 13. The body weight of each animal was determined and recorded once a week including the pretest acclimation period, in the morning on the same day of the week.
The following tables presents the results of the above described experiments as absolute body weights at start of treatment (week −1) as well as in drug week 6 and 13, including percentage change compared to controls. (in parentheses).

5-HT1A receptor = target: T1, 5-HT1A receptor (Homo sapiens, UniProt P08908); conditions: cited from earlier work
T1 sequence (P08908 1-422): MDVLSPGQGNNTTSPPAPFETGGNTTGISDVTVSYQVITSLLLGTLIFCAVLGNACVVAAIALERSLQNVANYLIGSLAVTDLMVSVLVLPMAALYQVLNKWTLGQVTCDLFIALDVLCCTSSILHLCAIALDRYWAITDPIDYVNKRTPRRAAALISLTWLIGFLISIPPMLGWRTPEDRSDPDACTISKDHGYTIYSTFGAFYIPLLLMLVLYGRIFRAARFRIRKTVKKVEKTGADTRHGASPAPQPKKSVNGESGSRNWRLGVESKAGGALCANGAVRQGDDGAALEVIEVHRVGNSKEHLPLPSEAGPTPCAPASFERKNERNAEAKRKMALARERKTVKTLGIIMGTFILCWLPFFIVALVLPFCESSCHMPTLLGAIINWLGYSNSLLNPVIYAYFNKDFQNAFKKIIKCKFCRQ

5-HT2-receptor family = conditions: cited from earlier work
[2] = female rats, 100 mg/kg/day via diet, drug week 6
[3] = female rats, 100 mg/kg/day via diet, drug week 13
[4] = female rats, 100 mg/kg/day via diet, drug week −1 (start of treatment)
[5] = female rats, 200 mg/kg/day via diet, drug week 6
[6] = female rats, 200 mg/kg/day via diet, drug week 13
[7] = female rats, 200 mg/kg/day via diet, drug week −1 (start of treatment)
[8] = female rats, 600 mg/kg/day via diet, drug week 6
[9] = female rats, 600 mg/kg/day via diet, drug week 13
[10] = female rats, 600 mg/kg/day via diet, drug week −1 (start of treatment)
[11] = male rats, 100 mg/kg/day via diet, drug week 6
[12] = male rats, 100 mg/kg/day via diet, drug week 13
[13] = male rats, 100 mg/kg/day via diet, drug week −1 (start of treatment)
[14] = male rats, 200 mg/kg/day via diet, drug week 6
[15] = male rats, 200 mg/kg/day via diet, drug week 13
[16] = male rats, 200 mg/kg/day via diet, drug week −1 (start of treatment)
[17] = male rats, 600 mg/kg/day via diet, drug week 6
[18] = male rats, 600 mg/kg/day via diet, drug week 13
[19] = male rats, 600 mg/kg/day via diet, drug week −1 (start of treatment)

O=c1[nH]c2ccccc2n1CCN1CCN(c2cccc(C(F)(F)F)c2)CC1 [BIMT 17 BS, 1-[2-(4-(3-trifluoromethyl-phenyl)piperazin-1-yl)ethyl]-2,3-dihydro-1H-benzimidazol-2-one]
Mean absolute body weight [1, 2]: 213.6 grams | percent change to controls (body weight) [1, 2]: −6.8% | Mean absolute body weight [1, 3]: 234.5 grams | percent change to controls (body weight) [1, 3]: −10.3% | Mean absolute body weight [1, 4]: 141.3 grams | percent change to controls (body weight) [1, 4]: +0.1% | Mean absolute body weight [1, 5]: 209.7 grams | percent change to controls (body weight) [1, 5]: −8.5% | Mean absolute body weight [1, 6]: 234.9 grams | percent change to controls (body weight) [1, 6]: −10.2% | Mean absolute body weight [1, 7]: 142.2 grams | percent change to controls (body weight) [1, 7]: +0.7% | Mean absolute body weight [1, 8]: 196.0 grams | percent change to controls (body weight) [1, 8]: −14.4% | Mean absolute body weight [1, 9]: 225.8 grams | percent change to controls (body weight) [1, 9]: −13.7% | Mean absolute body weight [1, 10]: 140.7 grams | percent change to controls (body weight) [1, 10]: −0.4% | difference compared to controls at study end (body weight decrease) ([1]; females, 100 mg/kg/day): 10% | difference compared to controls at study end (body weight decrease) ([1]; females, 200 mg/kg/day): 10% | difference compared to controls at study end (body weight decrease) ([1]; females, 600 mg/kg/day): 14% | Mean absolute body weight [1, 11]: 340.9 grams | percent change to controls (body weight) [1, 11]: −7.4% | Mean absolute body weight [1, 12]: 397.4 grams | percent change to controls (body weight) [1, 12]: −9.8% | Mean absolute body weight [1, 13]: 188.1 grams | percent change to controls (body weight) [1, 13]: −1.7% | Mean absolute body weight [1, 14]: 340.4 grams | percent change to controls (body weight) [1, 14]: −7.5% | Mean absolute body weight [1, 15]: 400.9 grams | percent change to controls (body weight) [1, 15]: −9.0% | Mean absolute body weight [1, 16]: 189.3 grams | percent change to controls (body weight) [1, 16]: −1.0% | Mean absolute body weight [1, 17]: 284.8 grams | percent change to controls (body weight) [1, 17]: −22.7% | Mean absolute body weight [1, 18]: 333.2 grams | percent change to controls (body weight) [1, 18]: −24.3% | Mean absolute body weight [1, 19]: 186.8 grams | percent change to controls (body weight) [1, 19]: −2.4% | difference compared to controls at study end (body weight decrease) ([1]; males, 100 mg/kg/day): 10% | difference compared to controls at study end (body weight decrease) ([1]; males, 200 mg/kg/day): 9% | difference compared to controls at study end (body weight decrease) ([1]; males, 600 mg/kg/day): 24% | body weight gain of males and females ([1]; rats, 100, 200 and 600 mg/kg/day via diet, in almost all drug weeks, versus controls): significantly decreased | affinity for the 5-HT1A receptor (5-HT1A receptor): shows affinity | affinity for the 5-HT2-receptor family (5-HT2-receptor family): shows affinity
